How the values were obtained:
Format in all cases: functional
[1] = test system: MCF7; experiment: Growth inhibition of human MCF7 cells assessed as cell growth at 3X10'-6 M after 48 hrs by sulforhodamine B assay; conditions: MCF7, 48 h, read-out: Activity
[2] = test system: SK-MEL-2; experiment: Growth inhibition of human SK-MEL-2 cells assessed as cell growth at 3X10'-8 M after 48 hrs by sulforhodamine B assay; conditions: SK-MEL-2, 48 h, read-out: Activity
[3] = test system: NCI-H522; experiment: Growth inhibition of human NCI-H522 cells assessed as cell growth at 3X10'-9 M after 48 hrs by sulforhodamine B assay; conditions: NCI-H522, 48 h, read-out: Activity
[4] = test system: HCT-116; experiment: Growth inhibition of human HCT116 cells assessed as cell growth at 3X10'-5 M after 48 hrs by sulforhodamine B assay; conditions: HCT-116, 48 h, read-out: Activity
[5] = test system: NCI-H460; experiment: Growth inhibition of human NCI-H460 cells assessed as cell growth at 3X10'-9 M after 48 hrs by sulforhodamine B assay; conditions: NCI-H460, 48 h, read-out: Activity
[6] = test system: SNB-75; experiment: Growth inhibition of human SNB75 cells assessed as cell growth at 3X10'-6 M after 48 hrs by sulforhodamine B assay; conditions: SNB-75, 48 h, read-out: Activity
[7] = test system: UO-31; experiment: Growth inhibition of human UO31 cells assessed as cell growth at 3X10'-9 M after 48 hrs by sulforhodamine B assay; conditions: UO-31, 48 h, read-out: Activity
[8] = test system: SF-539; experiment: Growth inhibition of human SF539 cells assessed as cell growth at 3X10'-5 M after 48 hrs by sulforhodamine B assay; conditions: SF-539, 48 h, read-out: Activity
[9] = test system: SF-539; experiment: Growth inhibition of human SF539 cells assessed as cell growth at 3X10'-9 M after 48 hrs by sulforhodamine B assay; conditions: SF-539, 48 h, read-out: Activity
[10] = test system: NCI-H522; experiment: Growth inhibition of human NCI-H522 cells assessed as cell growth at 3X10'-7 M after 48 hrs by sulforhodamine B assay; conditions: NCI-H522, 48 h, read-out: Activity
[11] = test system: COLO 205; experiment: Growth inhibition of human COLO205 cells assessed as cell growth at 3X10'-6 M after 48 hrs by sulforhodamine B assay; conditions: COLO 205, 48 h, read-out: Activity
[12] = test system: MDA-MB-435; experiment: Growth inhibition of human MDA-MB-435 cells assessed as cell growth at 3X10'-5 M after 48 hrs by sulforhodamine B assay; conditions: MDA-MB-435, 48 h, read-out: Activity
[13] = test system: HOP-92; experiment: Growth inhibition of human HOP92 cells assessed as cell growth at 3X10'-6 M after 48 hrs by sulforhodamine B assay; conditions: HOP-92, 48 h, read-out: Activity
[14] = test system: NCI-H460; experiment: Growth inhibition of human NCI-H460 cells assessed as cell growth at 3X10'-6 M after 48 hrs by sulforhodamine B assay; conditions: NCI-H460, 48 h, read-out: Activity
[15] = test system: NCI-H322M; experiment: Growth inhibition of human NCI-H322M cells assessed as cell growth at 3X10'-5 M after 48 hrs by sulforhodamine B assay; conditions: read-out: Activity
[16] = test system: SK-MEL-28; experiment: Growth inhibition of human SK-MEL-28 cells assessed as cell growth at 3X10'-6 M after 48 hrs by sulforhodamine B assay; conditions: SK-MEL-28, 48 h, read-out: Activity
[17] = test system: CCRF-CEM; experiment: Growth inhibition of human CCRF-CEM cells assessed as cell growth at 3X10'-7 M after 48 hrs by sulforhodamine B assay; conditions: read-out: Activity
[18] = test system: HOP-62; experiment: Growth inhibition of human HOP62 cells assessed as cell growth at 3X10'-9 M after 48 hrs by sulforhodamine B assay; conditions: HOP-62, 48 h, read-out: Activity
[19] = test system: UACC-62; experiment: Growth inhibition of human UACC62 cells assessed as cell growth at 3X10'-6 M after 48 hrs by sulforhodamine B assay; conditions: UACC-62, 48 h, read-out: Activity
[20] = test system: NCI-H522; experiment: Growth inhibition of human NCI-H522 cells assessed as cell growth at 3X10'-6 M after 48 hrs by sulforhodamine B assay; conditions: NCI-H522, 48 h, read-out: Activity
[21] = test system: MDA-MB-468; experiment: Growth inhibition of human MDA-MB-468 cells assessed as cell growth at 3X10'-9 M after 48 hrs by sulforhodamine B assay; conditions: MDA-MB-468, 48 h, read-out: Activity
[22] = test system: HL-60(TB); experiment: Growth inhibition of human HL-60(TB) cells assessed as cell growth at 3X10'-5 M after 48 hrs by sulforhodamine B assay; conditions: HL-60, 48 h, read-out: Activity
[23] = test system: HCT-15; experiment: Growth inhibition of human HCT15 cells assessed as cell growth at 3X10'-8 M after 48 hrs by sulforhodamine B assay; conditions: HCT-15, 48 h, read-out: Activity
[24] = test system: NCI-H522; experiment: Growth inhibition of human NCI-H522 cells assessed as cell growth at 3X10'-5 M after 48 hrs by sulforhodamine B assay; conditions: NCI-H522, 48 h, read-out: Activity
[25] = test system: NCI-H460; experiment: Growth inhibition of human NCI-H460 cells assessed as cell growth at 3X10'-7 M after 48 hrs by sulforhodamine B assay; conditions: NCI-H460, 48 h, read-out: Activity
[26] = test system: OVCAR-4; experiment: Growth inhibition of human OVCAR4 cells assessed as cell growth at 3X10'-5 M after 48 hrs by sulforhodamine B assay; conditions: OVCAR-4, 48 h, read-out: Activity
[27] = test system: ACHN; experiment: Growth inhibition of human ACHN cells assessed as cell growth at 3X10'-9 M after 48 hrs by sulforhodamine B assay; conditions: read-out: Activity
[28] = test system: TK-10; experiment: Growth inhibition of human TK10 cells assessed as cell growth at 3X10'-8 M after 48 hrs by sulforhodamine B assay; conditions: TK-10, 48 h, read-out: Activity
[29] = test system: SK-MEL-2; experiment: Growth inhibition of human SK-MEL-2 cells assessed as cell growth at 3X10'-6 M after 48 hrs by sulforhodamine B assay; conditions: SK-MEL-2, 48 h, read-out: Activity
[30] = test system: RXF 393; experiment: Growth inhibition of human RXF393 cells assessed as cell growth at 3X10'-6 M after 48 hrs by sulforhodamine B assay; conditions: RXF 393, 48 h, read-out: Activity
[31] = test system: RPMI-8226; experiment: Growth inhibition of human RPMI8226 cells assessed as cell growth at 3X10'-8 M after 48 hrs by sulforhodamine B assay; conditions: RPMI-8226, 48 h, read-out: Activity
[32] = test system: UACC-62; experiment: Growth inhibition of human UACC62 cells assessed as cell growth at 3X10'-5 M after 48 hrs by sulforhodamine B assay; conditions: UACC-62, 48 h, read-out: Activity
[33] = test system: NCI-H226; experiment: Growth inhibition of human NCI-H226 cells assessed as cell growth at 3X10'-9 M after 48 hrs by sulforhodamine B assay; conditions: NCI-H226, 48 h, read-out: Activity
[34] = test system: SR; experiment: Growth inhibition of human SR cells assessed as cell growth at 3X10'-5 M after 48 hrs by sulforhodamine B assay; conditions: read-out: Activity
[35] = test system: IGROV-1; experiment: Growth inhibition of human IGROV1 cells assessed as cell growth at 3X10'-9 M after 48 hrs by sulforhodamine B assay; conditions: IGROV-1, 48 h, read-out: Activity

What does the source list for `COc1cc(-c2nn(-c3cccc(NC(=O)Nc4ccc(Cl)c(C(F)(F)F)c4)c3)cc2-c2ccncc2)ccc1Cl`?
growth at 3 µM [1]: 5%; growth at 0.03 µM [2]: 115%; growth at 0.003 µM [3]: 106%; growth at 30 µM [4]: -63%; growth at 0.003 µM [5]: 103%; growth at 3 µM [6]: 24%; growth at 0.003 µM [7]: 92%; growth at 30 µM [8]: -80%; growth at 0.003 µM [9]: 97%; growth at 0.3 µM [10]: 100%; growth at 3 µM [11]: -49%; growth at 30 µM [12]: -50%; growth at 3 µM [13]: -36%; growth at 3 µM [14]: 6%; growth at 30 µM [15]: -17%; growth at 3 µM [16]: 16%; growth at 0.3 µM [17]: 93%; growth at 0.003 µM [18]: 95%; growth at 3 µM [19]: -21%; growth at 3 µM [20]: 8%; growth at 0.003 µM [21]: 101%; growth at 30 µM [22]: 6%; growth at 0.03 µM [23]: 97%; growth at 30 µM [24]: -21%; growth at 0.3 µM [25]: 101%; growth at 30 µM [26]: -2%; growth at 0.003 µM [27]: 102%; growth at 0.03 µM [28]: 102%; growth at 3 µM [29]: -12%; growth at 3 µM [30]: 20%; growth at 0.03 µM [31]: 97%; growth at 30 µM [32]: -73%; growth at 0.003 µM [33]: 99%; growth at 30 µM [34]: -12%; growth at 0.003 µM [35]: 110%

Reference: ChEMBL document CHEMBL2440076, “New triarylpyrazoles as broad-spectrum anticancer agents: design, synthesis, and biological evaluation” (Eur J Med Chem, 2013)
